Seven compounds from ChEMBL document CHEMBL5465560, “Selectivity Literature for EUbOPEN Chemogenomic Library” (2024) can be followed below.

Experiment [1] deals with 3',5'-cyclic-AMP phosphodiesterase 4D (Homo sapiens) (UniProt Q08499). Put plainly: Selectivity interaction (Panel of non-epigenetic targets (kinases, GPCRs, ion channels, and transporters, Eurofins) ) EUB0000271b PDE4D. The conditions noted are these: at 1 µM.
The test system of experiment [2] is T1, Receptor-type tyrosine-protein kinase FLT3 (Homo sapiens), P36888 [N841I].
T1 sequence (whole entry): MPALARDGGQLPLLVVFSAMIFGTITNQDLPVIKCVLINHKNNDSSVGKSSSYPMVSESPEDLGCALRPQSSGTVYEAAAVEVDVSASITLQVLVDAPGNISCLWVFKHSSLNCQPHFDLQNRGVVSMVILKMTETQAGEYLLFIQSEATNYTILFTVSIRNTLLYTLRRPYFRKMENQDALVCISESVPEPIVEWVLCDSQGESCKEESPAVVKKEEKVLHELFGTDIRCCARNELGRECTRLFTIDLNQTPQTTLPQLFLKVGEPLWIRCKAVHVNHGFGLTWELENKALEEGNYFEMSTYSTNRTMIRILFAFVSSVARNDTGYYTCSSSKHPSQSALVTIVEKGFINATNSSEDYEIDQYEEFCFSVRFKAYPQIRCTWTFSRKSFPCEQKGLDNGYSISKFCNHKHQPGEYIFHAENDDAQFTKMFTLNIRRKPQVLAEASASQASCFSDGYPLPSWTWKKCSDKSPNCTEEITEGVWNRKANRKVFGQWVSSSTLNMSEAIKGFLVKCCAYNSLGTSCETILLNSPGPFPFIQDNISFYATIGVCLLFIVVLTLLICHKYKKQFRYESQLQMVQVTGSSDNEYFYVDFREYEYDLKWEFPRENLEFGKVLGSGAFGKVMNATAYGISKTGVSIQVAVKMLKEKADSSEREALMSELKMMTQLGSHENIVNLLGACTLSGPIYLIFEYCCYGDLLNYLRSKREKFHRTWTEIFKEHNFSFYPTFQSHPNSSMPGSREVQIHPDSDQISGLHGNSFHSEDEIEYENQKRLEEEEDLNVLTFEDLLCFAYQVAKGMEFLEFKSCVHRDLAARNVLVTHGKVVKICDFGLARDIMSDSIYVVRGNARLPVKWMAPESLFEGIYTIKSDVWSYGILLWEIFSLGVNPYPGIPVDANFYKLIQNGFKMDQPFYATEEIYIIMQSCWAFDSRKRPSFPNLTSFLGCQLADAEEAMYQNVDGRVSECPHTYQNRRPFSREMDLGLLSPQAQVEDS
Put plainly: Selectivity interaction (KinomeScan (DiscoverX)) EUB0000607a FLT3. Conditions: at 10 µM.

Experiment [3] concerns the target Mitogen-activated protein kinase kinase kinase kinase 5 (Homo sapiens) (UniProt Q9Y4K4). As to the kind of experiment: Selectivity interaction (ActivX KiNativ screen (ex vivo kinase selectivity in human PBMCs)) EUB0001619a MAP4K5. Format: cell-based. Conditions: PBMC, at 1 µM.
Experiment [4] deals with Mitogen-activated protein kinase kinase kinase 11 (Homo sapiens) (UniProt Q16584). Put plainly: Selectivity interaction (ActivX KiNativ screen (kinase selectivity in THP-1 cell lysates)) EUB0000639a MAP3K11. Conditions: lysate, at 0.01 µM. In kind it is subcellular.
Experiment [5] deals with Wee1-like protein kinase (Homo sapiens) (UniProt P30291). As to the kind of experiment: Selectivity interaction (Kinase panel (Invitrogen)) EUB0000639a WEE1. Conditions: at 200 nM.
For experiment [6], the target named is Cyclin-dependent kinase 13 (Homo sapiens, UniProt Q14004). Put plainly: Selectivity interaction (ActivX KiNativ screen (kinase selectivity in THP-1 cell lysates)) EUB0000639a CDK13. In kind it is subcellular. Conditions: lysate.
In experiment [7] the target is Serine/threonine-protein kinase ATR (Homo sapiens) (UniProt Q13535). As to the kind of experiment: Selectivity interaction (ActivX KiNativ screen (kinase selectivity in THP-1 cell lysates)) EUB0000639a ATR. In kind it is subcellular. The conditions noted are these: lysate.
Experiment [8] has as its target Vascular endothelial growth factor receptor 3 (Homo sapiens, UniProt P35916). As to the kind of experiment: Selectivity interaction (KinomeScan (DiscoverX)) EUB0000699a FLT4. The conditions noted are these: at 10 µM.
Experiment [9] addresses T2, Mitogen-activated protein kinase 12 (Homo sapiens) (UniProt P53778).
T2 sequence (whole entry): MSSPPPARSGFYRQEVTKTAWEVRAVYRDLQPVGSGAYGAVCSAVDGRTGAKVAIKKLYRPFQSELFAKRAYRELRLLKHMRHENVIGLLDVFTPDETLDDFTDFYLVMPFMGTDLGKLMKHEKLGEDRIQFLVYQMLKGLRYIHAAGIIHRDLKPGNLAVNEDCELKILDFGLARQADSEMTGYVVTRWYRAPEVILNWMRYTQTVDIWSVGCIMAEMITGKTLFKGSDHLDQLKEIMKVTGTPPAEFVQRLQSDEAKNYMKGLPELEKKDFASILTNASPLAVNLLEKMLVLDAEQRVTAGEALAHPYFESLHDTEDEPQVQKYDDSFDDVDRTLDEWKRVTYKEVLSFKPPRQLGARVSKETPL
As to the kind of experiment: Selectivity interaction (ProQinase) EUB0000171b MAPK12.

The test system of experiment [10] is Phosphatidylinositol 4,5-bisphosphate 3-kinase catalytic subunit alpha isoform (Homo sapiens), P42336 [C420R]. Put plainly: (§1) Selectivity interaction (KinomeScan (DiscoverX)) EUB0000045b PIK3CA.
Experiment [11] relates to Phosphatidylinositol 4,5-bisphosphate 3-kinase catalytic subunit alpha isoform (Homo sapiens), P42336 [E542K]. The experiment is described as §1.
In experiment [12] the target is Phosphatidylinositol 4,5-bisphosphate 3-kinase catalytic subunit alpha isoform (Homo sapiens) (UniProt P42336). The experiment is described as §1.
Experiment [13] deals with Phosphatidylinositol 4,5-bisphosphate 3-kinase catalytic subunit alpha isoform (Homo sapiens), P42336 [I800L]. Described as §1.
Experiment [14] relates to Phosphatidylinositol 4,5-bisphosphate 3-kinase catalytic subunit alpha isoform (Homo sapiens), P42336 [E545K]. The experiment is described as §1.
Experiment [15] has as its system Phosphatidylinositol 4,5-bisphosphate 3-kinase catalytic subunit alpha isoform (Homo sapiens), P42336 [H1047L]. The description is as §1.
Experiment [16] concerns Phosphatidylinositol 4,5-bisphosphate 3-kinase catalytic subunit alpha isoform (Homo sapiens), P42336 [M1043I]. The description is as §1.
Experiment [17] has as its system Phosphatidylinositol 4,5-bisphosphate 3-kinase catalytic subunit alpha isoform (Homo sapiens), P42336 [Q546K]. The description is as §1.
The subject of experiment [18] is Phosphatidylinositol 4,5-bisphosphate 3-kinase catalytic subunit alpha isoform (Homo sapiens), P42336 [E545A]. The description is as §1.
Experiment [19] deals with Phosphatidylinositol 4,5-bisphosphate 3-kinase catalytic subunit alpha isoform (Homo sapiens), P42336 [H1047Y]. The description is as §1.

Chain of Serine/threonine-protein kinase ATR (Homo sapiens) (Q13535 whole entry, looked up): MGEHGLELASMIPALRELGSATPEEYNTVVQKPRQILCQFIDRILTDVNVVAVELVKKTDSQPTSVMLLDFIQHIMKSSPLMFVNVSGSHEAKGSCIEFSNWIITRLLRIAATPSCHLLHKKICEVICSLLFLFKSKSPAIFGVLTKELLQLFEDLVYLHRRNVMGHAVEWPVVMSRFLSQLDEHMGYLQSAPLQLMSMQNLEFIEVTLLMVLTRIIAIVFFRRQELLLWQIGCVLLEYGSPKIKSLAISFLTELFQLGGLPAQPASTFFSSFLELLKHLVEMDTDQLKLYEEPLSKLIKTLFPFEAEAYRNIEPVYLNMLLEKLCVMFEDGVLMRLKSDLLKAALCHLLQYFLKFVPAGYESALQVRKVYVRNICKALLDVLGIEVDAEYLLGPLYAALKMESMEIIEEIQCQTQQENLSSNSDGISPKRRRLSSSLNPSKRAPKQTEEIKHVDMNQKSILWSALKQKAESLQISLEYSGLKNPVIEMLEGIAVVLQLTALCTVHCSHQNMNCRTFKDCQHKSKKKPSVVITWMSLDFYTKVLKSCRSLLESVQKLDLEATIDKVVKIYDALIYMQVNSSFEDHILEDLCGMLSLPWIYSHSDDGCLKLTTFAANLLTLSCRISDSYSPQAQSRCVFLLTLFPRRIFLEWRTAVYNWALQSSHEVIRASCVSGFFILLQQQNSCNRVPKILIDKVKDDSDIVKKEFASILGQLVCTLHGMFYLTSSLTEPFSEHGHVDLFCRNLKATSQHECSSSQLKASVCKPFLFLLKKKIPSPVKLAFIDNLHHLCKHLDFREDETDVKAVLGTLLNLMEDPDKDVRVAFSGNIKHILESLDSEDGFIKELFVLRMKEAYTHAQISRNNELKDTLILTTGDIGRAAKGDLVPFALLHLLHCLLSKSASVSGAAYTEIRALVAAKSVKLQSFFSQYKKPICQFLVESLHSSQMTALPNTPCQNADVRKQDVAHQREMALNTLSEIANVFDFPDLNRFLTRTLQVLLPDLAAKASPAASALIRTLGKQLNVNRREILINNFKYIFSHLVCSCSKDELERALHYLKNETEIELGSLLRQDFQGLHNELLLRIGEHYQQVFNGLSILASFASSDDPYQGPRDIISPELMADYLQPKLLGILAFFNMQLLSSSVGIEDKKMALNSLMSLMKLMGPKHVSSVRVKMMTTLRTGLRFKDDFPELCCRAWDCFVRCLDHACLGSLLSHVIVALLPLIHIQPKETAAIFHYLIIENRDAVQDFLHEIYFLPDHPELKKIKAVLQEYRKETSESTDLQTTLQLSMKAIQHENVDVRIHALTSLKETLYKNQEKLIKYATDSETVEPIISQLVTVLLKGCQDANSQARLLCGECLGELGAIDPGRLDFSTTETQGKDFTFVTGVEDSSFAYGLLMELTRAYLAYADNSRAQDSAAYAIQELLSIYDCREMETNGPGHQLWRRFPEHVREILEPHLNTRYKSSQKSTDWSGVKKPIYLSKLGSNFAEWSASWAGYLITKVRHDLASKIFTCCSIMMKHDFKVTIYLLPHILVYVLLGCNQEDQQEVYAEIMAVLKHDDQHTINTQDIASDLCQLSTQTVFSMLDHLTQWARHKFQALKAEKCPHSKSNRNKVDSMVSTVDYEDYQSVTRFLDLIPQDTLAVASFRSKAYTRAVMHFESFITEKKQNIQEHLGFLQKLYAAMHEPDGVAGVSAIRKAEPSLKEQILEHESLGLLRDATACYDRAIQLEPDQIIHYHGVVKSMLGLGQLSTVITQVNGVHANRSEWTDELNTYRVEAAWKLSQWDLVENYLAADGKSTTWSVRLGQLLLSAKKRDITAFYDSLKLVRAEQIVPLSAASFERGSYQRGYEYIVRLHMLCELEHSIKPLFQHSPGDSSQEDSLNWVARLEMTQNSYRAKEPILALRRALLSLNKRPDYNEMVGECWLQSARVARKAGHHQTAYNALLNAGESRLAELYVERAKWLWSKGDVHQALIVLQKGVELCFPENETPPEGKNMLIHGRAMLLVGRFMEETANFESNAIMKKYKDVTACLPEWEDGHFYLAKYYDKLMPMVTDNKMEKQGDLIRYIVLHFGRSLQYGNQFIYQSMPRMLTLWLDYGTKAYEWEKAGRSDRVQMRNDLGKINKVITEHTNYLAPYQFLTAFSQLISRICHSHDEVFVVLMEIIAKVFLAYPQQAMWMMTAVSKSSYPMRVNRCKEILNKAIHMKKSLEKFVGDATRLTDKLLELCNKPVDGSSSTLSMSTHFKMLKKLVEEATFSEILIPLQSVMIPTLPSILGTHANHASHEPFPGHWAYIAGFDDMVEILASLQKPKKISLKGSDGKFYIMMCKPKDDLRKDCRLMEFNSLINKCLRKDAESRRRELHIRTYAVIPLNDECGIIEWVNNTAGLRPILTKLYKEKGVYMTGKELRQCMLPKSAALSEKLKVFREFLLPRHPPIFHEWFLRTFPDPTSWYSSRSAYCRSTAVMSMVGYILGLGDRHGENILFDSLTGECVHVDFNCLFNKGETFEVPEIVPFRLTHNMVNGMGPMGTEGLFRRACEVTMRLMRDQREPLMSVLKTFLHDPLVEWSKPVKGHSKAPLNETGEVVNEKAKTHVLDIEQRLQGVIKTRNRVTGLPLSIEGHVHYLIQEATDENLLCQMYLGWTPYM
Chain of Cyclin-dependent kinase 13 (Q14004 whole entry, looked up): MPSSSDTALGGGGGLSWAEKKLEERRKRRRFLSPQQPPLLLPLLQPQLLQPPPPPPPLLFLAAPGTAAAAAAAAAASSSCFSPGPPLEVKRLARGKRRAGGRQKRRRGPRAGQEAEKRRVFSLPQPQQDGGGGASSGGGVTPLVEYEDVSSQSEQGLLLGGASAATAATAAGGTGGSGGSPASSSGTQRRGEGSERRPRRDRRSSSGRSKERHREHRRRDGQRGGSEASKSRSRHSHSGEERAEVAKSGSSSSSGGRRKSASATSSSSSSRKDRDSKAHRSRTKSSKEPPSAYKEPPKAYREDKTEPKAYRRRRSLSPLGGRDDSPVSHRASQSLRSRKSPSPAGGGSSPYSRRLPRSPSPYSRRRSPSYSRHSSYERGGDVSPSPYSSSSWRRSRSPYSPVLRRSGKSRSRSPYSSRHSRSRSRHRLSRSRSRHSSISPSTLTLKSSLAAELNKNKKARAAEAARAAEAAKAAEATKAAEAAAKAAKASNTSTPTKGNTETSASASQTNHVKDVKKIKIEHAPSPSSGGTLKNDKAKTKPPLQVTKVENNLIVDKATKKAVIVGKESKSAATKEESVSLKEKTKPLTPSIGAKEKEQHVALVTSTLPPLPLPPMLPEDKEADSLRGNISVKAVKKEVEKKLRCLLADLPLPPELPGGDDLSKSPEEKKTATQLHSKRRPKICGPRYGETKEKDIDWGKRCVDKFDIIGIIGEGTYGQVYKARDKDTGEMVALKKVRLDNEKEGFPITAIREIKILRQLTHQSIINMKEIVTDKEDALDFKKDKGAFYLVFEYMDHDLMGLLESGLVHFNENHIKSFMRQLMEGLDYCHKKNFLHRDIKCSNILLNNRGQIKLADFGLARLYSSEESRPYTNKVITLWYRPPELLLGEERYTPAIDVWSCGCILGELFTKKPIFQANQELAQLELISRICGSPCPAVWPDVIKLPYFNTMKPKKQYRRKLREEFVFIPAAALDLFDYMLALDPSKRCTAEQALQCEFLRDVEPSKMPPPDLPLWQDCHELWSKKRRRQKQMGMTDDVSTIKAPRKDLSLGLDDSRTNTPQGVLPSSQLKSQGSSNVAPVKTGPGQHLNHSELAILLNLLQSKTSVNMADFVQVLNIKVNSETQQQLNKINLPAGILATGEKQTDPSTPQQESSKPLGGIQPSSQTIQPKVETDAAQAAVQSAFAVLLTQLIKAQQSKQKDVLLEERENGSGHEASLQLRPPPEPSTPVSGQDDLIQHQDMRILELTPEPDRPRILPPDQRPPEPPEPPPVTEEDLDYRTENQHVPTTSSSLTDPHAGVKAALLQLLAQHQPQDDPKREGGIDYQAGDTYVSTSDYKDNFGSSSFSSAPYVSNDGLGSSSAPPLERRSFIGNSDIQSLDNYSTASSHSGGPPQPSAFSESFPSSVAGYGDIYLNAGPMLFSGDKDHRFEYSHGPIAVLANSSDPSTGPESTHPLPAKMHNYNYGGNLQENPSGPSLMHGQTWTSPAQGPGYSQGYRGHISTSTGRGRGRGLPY
Chain of Mitogen-activated protein kinase kinase kinase kinase 5 (Homo sapiens) (Q9Y4K4 whole entry, looked up): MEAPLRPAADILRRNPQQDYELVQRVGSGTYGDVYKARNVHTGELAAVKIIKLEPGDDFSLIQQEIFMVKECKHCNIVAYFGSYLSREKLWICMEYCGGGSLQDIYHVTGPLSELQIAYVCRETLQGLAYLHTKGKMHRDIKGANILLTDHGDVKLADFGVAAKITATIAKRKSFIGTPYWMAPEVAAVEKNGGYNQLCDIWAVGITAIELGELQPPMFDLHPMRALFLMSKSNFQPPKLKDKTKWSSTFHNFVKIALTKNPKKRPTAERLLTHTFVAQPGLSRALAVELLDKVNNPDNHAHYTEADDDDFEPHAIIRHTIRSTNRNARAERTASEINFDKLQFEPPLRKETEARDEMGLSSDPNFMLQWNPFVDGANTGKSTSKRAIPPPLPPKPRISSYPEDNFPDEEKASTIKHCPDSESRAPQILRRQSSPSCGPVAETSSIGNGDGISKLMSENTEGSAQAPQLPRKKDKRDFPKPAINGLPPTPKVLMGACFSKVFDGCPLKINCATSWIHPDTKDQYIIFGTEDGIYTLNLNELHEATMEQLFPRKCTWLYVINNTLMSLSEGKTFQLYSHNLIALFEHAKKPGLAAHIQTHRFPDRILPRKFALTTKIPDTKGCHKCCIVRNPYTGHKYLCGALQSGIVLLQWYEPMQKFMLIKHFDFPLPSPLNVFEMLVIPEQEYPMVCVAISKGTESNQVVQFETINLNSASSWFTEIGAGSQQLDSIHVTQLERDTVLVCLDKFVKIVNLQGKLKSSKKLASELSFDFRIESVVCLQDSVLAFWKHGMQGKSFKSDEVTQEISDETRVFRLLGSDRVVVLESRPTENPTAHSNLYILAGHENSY

Consider `Cc1cc(C)cc([C@@H]2c3cc(C)ccc3NC(=O)CN2C(=O)c2ccc(Br)s2)c1`, for which the % of inhibition in experiment [1] was -12%.

For the compound `CNC(=O)Nc1ccc(-c2nc(N3CC4CCC(C3)O4)c3cnn(C4CCC5(CC4)OCCO5)c3n2)cc1`, the % of control in experiment [2] was 89%.

Consider `N#Cc1cccc(-c2c[nH]c3ncnc(N4CCOCC4)c23)c1`, for which the % of inhibition in experiment [3] is -13%.

On to `CC[C@@H]1[C@H](F)C(=O)N[C@@H]1COc1nccc2cc(C(N)=O)c(OC)cc12` [ZIMLOVISERTIB], for which the % of inhibition was 4.9% in experiment [4]; -0.606% in [5]; 3.8% in [6] (at 0.01 µM); -10.7% in experiment [6] (at 0.04 µM); -1.5% in [6] (at 0.2 µM); -2.6% in experiment [6] (at 1 µM). Besides, the % of inhibition in [6] (at 5 µM) was 5.1%; in experiment [7] (at 0.01 µM) it was 14.9%; in [7] (at 0.04 µM), 0%; in [7] (at 0.2 µM), -4.2%; in experiment [7] (at 1 µM) it was 14.1%; in experiment [7] (at 5 µM) it was 18.6%.

`CCN(CC)CCCCNc1ncc2cc(-c3cc(OC)cc(OC)c3)c(NC(=O)NC(C)(C)C)nc2n1` had a % of control in [8] of 6%.

`C=CC(=O)Nc1cccc(C(=O)Nc2ccc(Nc3cc(-c4[nH]c(SC)nc4C)ccn3)cc2)c1`: the % of control in experiment [9] (at 1 µM) was 94%; in [9] (at 5 µM) it was 87%.

In the case of `C=CC(=O)Nc1cc(-n2c(=O)ccc3cnc4ccc(-c5ccc(NS(C)(=O)=O)cc5)cc4c32)ccc1C`, the % of control in experiment [10] (at 1 µM) stood at 100%; in [10] (at 10 µM), 32%; in [11] (at 1 µM) it was 100%; in experiment [11] (at 10 µM), 23%; in experiment [12] (at 1 µM), 68%; in [12] (at 10 µM) it was 9.9%. For the same compound, the % of control in experiment [13] (at 1 µM) was found to be 46%; in experiment [13] (at 10 µM), 7.6%; in experiment [14] (at 1 µM), 100%; in experiment [14] (at 10 µM), 74%; in [15] (at 1 µM), 100%; in experiment [15] (at 10 µM) it was 86%. In addition, the % of control in experiment [16] (at 1 µM) worked out at 100%; in experiment [16] (at 10 µM), 24%; in [17] (at 1 µM), 100%; in experiment [17] (at 10 µM), 35%; in [18] (at 1 µM), 90%; in experiment [18] (at 10 µM), 17%. For the same compound, the % of control was determined as 88% in experiment [19] (at 1 µM) and 26% in [19] (at 10 µM).
